In patent publication US20220356174A1, “PYRIDIN-2-ONE COMPOUNDS USEFUL AS SMARCA2 ANTAGONISTS” (Epizyme, Inc., priority 2018, published 2022):
Where two headings read alike, the source gives them in different places.

Tests used:
[1] = target: T1, FL-SMARCA2 (full-length human SMARCA2 isoform 1) (Homo sapiens, UniProt P51531); assay: SMARCA2 ATPase activity assay (ADP-Glo, chicken mononucleosome substrate); format: biochemical; conditions: ATPase assay, enzyme 5 nM, ATP 250 uM, chicken mononucleosome 10 nM, 30 min preincubation
T1 construct: FLAG tag (YKDDDDK) (C); made in house; host or cells: Sf21 insect cells (baculovirus, pFastBacI)
T1 sequence (P51531 with tags, fused parts or gaps): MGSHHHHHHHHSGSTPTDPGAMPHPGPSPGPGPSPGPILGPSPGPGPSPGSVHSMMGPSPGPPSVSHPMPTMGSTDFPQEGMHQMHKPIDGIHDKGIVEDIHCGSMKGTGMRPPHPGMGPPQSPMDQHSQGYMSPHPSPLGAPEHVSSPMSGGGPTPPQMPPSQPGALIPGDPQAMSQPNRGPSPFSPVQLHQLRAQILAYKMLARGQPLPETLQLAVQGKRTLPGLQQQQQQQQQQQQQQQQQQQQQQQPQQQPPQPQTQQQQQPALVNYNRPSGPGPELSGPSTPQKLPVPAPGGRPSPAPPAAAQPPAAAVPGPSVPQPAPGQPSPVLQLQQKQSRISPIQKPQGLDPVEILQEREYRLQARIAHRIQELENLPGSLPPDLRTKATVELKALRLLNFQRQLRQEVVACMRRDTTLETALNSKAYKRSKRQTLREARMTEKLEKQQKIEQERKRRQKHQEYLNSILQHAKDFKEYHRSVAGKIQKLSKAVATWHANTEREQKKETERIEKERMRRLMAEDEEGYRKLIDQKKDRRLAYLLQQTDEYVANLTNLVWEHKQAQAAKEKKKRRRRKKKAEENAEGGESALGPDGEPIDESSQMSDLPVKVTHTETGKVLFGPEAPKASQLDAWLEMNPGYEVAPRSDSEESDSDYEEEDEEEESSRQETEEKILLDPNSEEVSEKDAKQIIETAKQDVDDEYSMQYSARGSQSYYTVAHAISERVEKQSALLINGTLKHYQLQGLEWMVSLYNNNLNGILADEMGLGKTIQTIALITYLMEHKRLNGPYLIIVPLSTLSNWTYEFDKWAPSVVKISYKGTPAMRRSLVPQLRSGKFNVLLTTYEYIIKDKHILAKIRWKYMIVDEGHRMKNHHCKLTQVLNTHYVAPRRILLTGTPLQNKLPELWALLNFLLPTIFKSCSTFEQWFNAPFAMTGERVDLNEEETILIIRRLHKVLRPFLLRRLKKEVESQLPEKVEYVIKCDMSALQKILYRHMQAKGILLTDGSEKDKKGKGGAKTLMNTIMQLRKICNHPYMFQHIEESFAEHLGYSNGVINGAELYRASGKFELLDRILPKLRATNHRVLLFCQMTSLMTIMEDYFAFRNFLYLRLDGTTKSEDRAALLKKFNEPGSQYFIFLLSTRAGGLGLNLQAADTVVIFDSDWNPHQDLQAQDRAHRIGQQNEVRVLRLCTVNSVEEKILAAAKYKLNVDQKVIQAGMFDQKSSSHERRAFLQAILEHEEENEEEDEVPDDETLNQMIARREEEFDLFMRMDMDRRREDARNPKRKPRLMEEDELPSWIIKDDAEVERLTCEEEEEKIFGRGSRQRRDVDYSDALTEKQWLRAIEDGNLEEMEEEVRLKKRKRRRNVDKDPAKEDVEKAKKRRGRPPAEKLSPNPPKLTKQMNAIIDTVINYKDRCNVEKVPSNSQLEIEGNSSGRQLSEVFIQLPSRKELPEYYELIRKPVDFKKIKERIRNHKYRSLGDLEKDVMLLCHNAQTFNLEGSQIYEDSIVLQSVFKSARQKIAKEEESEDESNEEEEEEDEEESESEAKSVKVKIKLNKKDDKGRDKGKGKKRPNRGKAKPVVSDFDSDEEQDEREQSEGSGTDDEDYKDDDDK

FL-SMARCA4 = FL-SMARCA4 (Homo sapiens, UniProt P51532); assay: SMARCA4 ATPase activity assay (ADP-Glo, chicken mononucleosome substrate)
Chain of FL-SMARCA4 (P51532 whole entry): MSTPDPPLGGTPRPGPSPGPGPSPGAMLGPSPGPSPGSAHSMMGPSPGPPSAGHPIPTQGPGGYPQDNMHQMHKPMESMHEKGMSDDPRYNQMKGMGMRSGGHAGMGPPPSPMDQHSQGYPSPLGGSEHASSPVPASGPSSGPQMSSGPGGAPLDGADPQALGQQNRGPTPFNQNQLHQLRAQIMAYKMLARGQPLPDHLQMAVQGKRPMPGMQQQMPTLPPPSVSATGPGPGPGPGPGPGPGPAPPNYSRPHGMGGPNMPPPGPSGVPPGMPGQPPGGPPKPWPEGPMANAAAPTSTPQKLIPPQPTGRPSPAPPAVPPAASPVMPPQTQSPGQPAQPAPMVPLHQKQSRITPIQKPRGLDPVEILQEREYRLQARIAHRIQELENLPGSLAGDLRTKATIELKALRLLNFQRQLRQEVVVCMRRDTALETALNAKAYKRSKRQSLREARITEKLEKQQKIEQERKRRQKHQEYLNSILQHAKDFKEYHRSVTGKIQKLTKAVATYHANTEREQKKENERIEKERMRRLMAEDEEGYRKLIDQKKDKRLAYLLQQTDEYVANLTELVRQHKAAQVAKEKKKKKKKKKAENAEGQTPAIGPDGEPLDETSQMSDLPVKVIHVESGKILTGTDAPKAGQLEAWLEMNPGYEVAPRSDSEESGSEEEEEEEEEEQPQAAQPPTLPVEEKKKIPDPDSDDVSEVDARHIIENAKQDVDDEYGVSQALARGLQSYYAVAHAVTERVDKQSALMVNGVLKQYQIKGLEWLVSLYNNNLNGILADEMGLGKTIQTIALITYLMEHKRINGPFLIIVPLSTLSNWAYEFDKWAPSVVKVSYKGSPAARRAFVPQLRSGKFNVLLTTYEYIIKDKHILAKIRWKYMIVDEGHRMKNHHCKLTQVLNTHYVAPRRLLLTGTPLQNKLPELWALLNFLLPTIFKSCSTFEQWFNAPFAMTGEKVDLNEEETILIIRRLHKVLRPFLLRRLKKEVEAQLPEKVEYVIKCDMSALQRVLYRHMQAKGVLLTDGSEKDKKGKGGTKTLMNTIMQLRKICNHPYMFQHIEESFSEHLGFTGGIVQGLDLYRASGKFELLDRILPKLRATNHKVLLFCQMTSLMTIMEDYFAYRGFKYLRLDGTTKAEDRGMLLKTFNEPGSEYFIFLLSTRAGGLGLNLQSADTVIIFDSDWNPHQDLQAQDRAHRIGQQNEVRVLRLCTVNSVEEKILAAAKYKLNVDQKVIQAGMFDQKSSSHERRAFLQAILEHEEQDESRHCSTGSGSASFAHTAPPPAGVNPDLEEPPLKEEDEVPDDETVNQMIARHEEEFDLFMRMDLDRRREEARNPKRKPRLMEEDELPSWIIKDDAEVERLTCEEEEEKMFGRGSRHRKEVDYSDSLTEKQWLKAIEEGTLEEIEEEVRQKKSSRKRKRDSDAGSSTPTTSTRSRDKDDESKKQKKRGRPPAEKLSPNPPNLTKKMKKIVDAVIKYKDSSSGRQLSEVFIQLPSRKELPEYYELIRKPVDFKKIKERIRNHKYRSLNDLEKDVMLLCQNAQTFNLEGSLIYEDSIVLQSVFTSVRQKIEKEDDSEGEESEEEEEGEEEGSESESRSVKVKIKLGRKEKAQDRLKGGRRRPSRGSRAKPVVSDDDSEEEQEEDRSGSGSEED
Description: Substrates. Chicken erythrocyte mononucleosomes were prepared from fresh chicken blood collected into anticoagulant and filtered through cheesecloth. The filtered chicken blood was diluted in buffer A (10 mM Tris-HCl, pH 7.4, 10 mM NaCl, 3 mM MgCl2) and centrifuged at 500 g for 15 minutes to collect the erythrocytes. Erythrocyte nuclei were harvested by resuspending the pellets in buffer A containing 0.3% NP-40 detergent. The mixture was stirred with a magnetic bar for 10 mins and centrifuged at 4000 g for 10 minutes. Resuspension, stirring and centrifugation was repeated twice more before the final nuclei pellet was resuspended in buffer A+0.3% NP-40 and stored at −80° C. until purification. For nucleosome purification, nuclei aliquots were rapidly thawed and washed five times with buffer B (10 mM Tris-HCl, pH 7.4, 1 mM CaCl2), 1 mM PMSF) and collected by centrifugation at 2800 g for 10 minutes. Pellets were resuspended in buffer B and treated with 100 U/mL micrococcal nuclease for 40 minutes at 37° C. The reaction was terminated by the addition of 2 mM EDTA and was centrifuged at 2800 g for 10 minutes. The nuclei were then lysed by resuspending the pellet in 1 mM EDTA and 1 mM PMSF and passing the mixture through a 22G needle 4 to 5 times. The solution was then centrifuged at 15,000 g for 20 minutes and the supernatant was collected. The remaining pellet was lysed through the syringe twice more and the supernatants were pooled after centrifugation. The pooled supernatants were further purified by size exclusion chromatography (GE Sephacryl S300 HR 50/100) in buffer C (10 mM HEPES, pH 7.5, 10 mM KCl, 1 mM EDTA, 1 mM PMSF, 10% glycerol). Fractions were analyzed by agarose gel electrophoresis and SDS-PAGE and fractions containing mononucleosomes were pooled and stored at −80° C.
The SMARCA2 or SMARCA4 ATPase assays were identical. The SMARCA2 or SMARCA4 ATPase assays were performed in a buffer consisting of 20 mM Bicine (pH 7.5), 10 mM KCl, 1 mM MgCl2, 1 mM TCEP, 0.005% BSG, and 0.002% Tween 20, prepared on the day of use. Compounds in 100% DMSO were 3-fold serially diluted to produce a 10 point curve for IC50 determination and 0.2 uL were transferred into polypropylene 384-well V-bottom plates (Greiner) using an Echo liquid handler (Labcyte). DMSO (0.2 uL) was added to Columns 11, 12, 23, 24, rows A-H for the maximum signal control and 0.2 uL doxorubicin, a known DNA intercalator, was added to columns 11, 12, 23, 24, rows I-P for the minimum signal control. The SMARCA2 or SMARCA4 enzyme (10 uL) was added to the compounds and allowed to incubate with the compounds for 30 min at room temperature. The SMARCA2 or SMARCA4 ATPase assay was initiated by the addition of 10 uL chicken mononucleosome and ATP mixture (final volume=20 uL). The final concentrations of the assay components were as follows: SMARCA2 or SMARCA4 was 5 nM, ATP was 250 uM, chicken mononucleosome was 10 nM, doxorubicin in the minimum signal control wells was 50 uM, and the DMSO concentration was 1%. 5 uL of the reaction mixture was transferred from the 384-well polypropylene plate to a white opaque polystyrene 384-well plate. At 60 minutes, the assays were terminated by the addition of 5 uL ADP-Glo™ Reagent (Promega). After 40 minutes, the luciferase reaction was initiated by the addition of 10 uL of Kinase Detection Reagent (Promega) and incubated for 1 hour. The ADP product generated from the SMARCA2 or SMARCA4 ATPase reaction was determined via luminescence intensity.

H358 cells = assay: High-throughput proliferation (HTP) assay for H358 cells (CellTiter-Glo, 7 days); format: cell-based; conditions: Homo sapiens, NCI-H358, 168 h, read-out: H358 SMARCA2 IC50
Description: Thawing vials: H358 cells (ATCC #CRL-5807™) were thawed from a cryovial containing approximately 1.6×10^6 cells frozen in 70% RPMI 1640 medium, 20% HI-FBS and 10% DMSO. Cells were thawed by submerging the bottom half of the vial in a 37° C. water bath and gently flicked until almost thawed. The cells were removed and transferred into a 15 mL conical tube containing 9 mL RPMI 1640 medium+10% HI-FBS and then centrifuged 200×g for 4 min before drawing off the media without disturbing the cell pellet to remove the DMSO. The cells were resuspended again in 15 mL of RPMI 1640 fresh complete media+10% HI-FBS and grown up in a T75 flask at 37° C. with 5% CO2 Incubator. Viability was measured to obtain baseline.
Preparing frozen stock vials: Cell density was counted in a stock flask. The culture was transferred to a 50 mL conical tube and spun down to remove medium, and then resuspend at 1-2×10^6 cells/mL in complete medium containing 10% DMSO and transferred to a 1 mL per vial.
(§1) Routine subculture: Sub-confluent cultures (70-80%) were split every 4 days, seeding out at 1-2×10^6 cells/75 cm^2.
Day 0: Assay ready plates were prepared by dispensing 50 nL of compound stock or DMSO in the appropriate wells of 384-well white CulturPlates using Echo550. Using the Multiflo, H358 cells at 50 μL/well were plated in RPMI 1640 complete media+10% HI-FBS+1% pen/strep at cell density determined [20,000 cells/mL (1,000 cells/well)] from growth curve. Treated cells were inclubated at 37° C., 5% CO2, relative humidity >90% for 7 days. CellTiter-Glo (CTG) ATP detection reagent was prepared according to manufacturer's specifications. Cell assay plates were removed from incubator and bring to room temperature (RT).
Using the MultiDrop liquid handler, 30 μL of CTG were added per well. Plates were placed on the multidrop dispenser shake for 5 seconds at RT. Plates were incubated for 30 minutes in the dark at RT before measuring luminescence using the Envison2104.
Data analysis: Using the DMSO control wells as the 0% inhibition (high signal) control and the 10 uM Doxorubicin control wells as the 100% inhibition (low signal) control, percent inhibition EC50s (inflection point) and IC50s were calculated for the compound dose responses.

A549 cells = assay: High-throughput proliferation (HTP) assay for A549 cells (CellTiter-Glo, 7 days); format: cell-based; conditions: Homo sapiens, 168 h, read-out: A549 SMARCA2 IC50
Description: Thawing vials: A549 cells (ATCC #CCL-185™) were thawed from a cryovial containing approximately 1.6×10^6 cells frozen in 70% F12K medium, 20% HI-FBS and 10% DMSO. Cells were thawed by submerging the bottom half of the vial in a 37° C. water bath and gently flicked until almost thawed. The cells were transferred into a 15 mL conical tube containing 9 mL of F12K medium+10% HI-FBS and then centrifuged at 200×g for 4 min before drawing off the media without disturbing the cell pellet in order to remove the DMSO. The cells were resuspended again in 15 mL of F12K fresh complete media+10% HI-FBS and grown up in a T75 flask at 37° C. with 5% CO2 Incubator. Viability was measured to obtain baseline.
Frozen stock vials preparation: The cell culture was transferred to a 50 mL conical tube, spun down to remove medium, and resuspended at 1-2×10^6 cells/mL in complete medium containing 10% DMSO. The culture was then stored for 24 hours at −80 degree C., (with the initial rate of freezing is −1 degree C. per minute in a freezing container), then transferred and stored in liquid nitrogen.
as §1
Day 0: Assay ready plates were prepared by dispensing 50 nL of compound or DMSO in the appropriate wells of 384-well white CulturPlates using Echo550. Using the Multiflo, A549 cells were plated at 50 μL/well in F12K complete media+10% HI-FBS+1% pen/strep at cell density determined [1,250 cells/mL (62.5 cells/well)] from growth curve.
Treated cells were incubated at 37° C., 5% CO2, relative humidity >90% for 7 days. CellTiter-Glo (CTG) ATP detection reagent was prepared according to manufacturer's specifications. Cell assay plates were removed from the incubator and brought to room temperature (RT). Using the MultiDrop liquid handler, 30 μL of CTG were added per well. Plates were placed on the multidrop dispenser shake for 5 seconds at room temperature (RT). Plates were incubated for 30 minutes in the dark at RT before measuring luminescence using the Envison2104.
Data analysis: Using the DMSO control wells as the 0% inhibition (high signal) control and the 10 μM Doxorubicin control wells as the 100% inhibition (low signal) control, percent inhibition EC50s (inflection point) and IC50 s were calculated for the compound dose responses.

[2] = Table 3d.1, read-out: FL-SMARCA2 IC>50
[3] = FL-SMARCA4 IC>50, Table 3c.2, ATPase assay, enzyme 5 nM, ATP 250 uM, chicken mononucleosome 10 nM, 30 min preincubation

Structure (SMILES) | IC50 [1, 2] [nM] | IC50 (FL-SMARCA4; FL-SMARCA4 IC50) [nM] | IC50 (H358 cells) [nM] | IC50 (A549 cells) [nM] | IC50 ([1]; Table 3c.1) [nM] | IC50 (FL-SMARCA4; [3]) [nM]
O=C1C[C@@H](C#Cc2cc(C(=O)Nc3cc(F)c(=O)n(CC(F)F)c3)sc2Cl)CCN1 [Compound 62d] | 22.5 | 57.1 | > 10000 | > 10000 |  | 
Cc1cc(C#Cc2cc(C(=O)Nc3cc(F)c(=O)n(CC(F)F)c3)sc2Cl)on1 [Compound 63c] |  |  | > 10000 | 2290 | 33.3 | 100
O=C1C[C@H](C#Cc2cc(C(=O)Nc3cc(F)c(=O)n(CC(F)F)c3)sc2Cl)CCN1 [Compound 63d] | 165 | 518 | > 10000 | > 10000 |  | 
N#Cc1cncc(C#Cc2cc(C(=O)Nc3cc(F)c(=O)n(CC(F)F)c3)sc2Cl)c1 [Compound 64d] | 165 | 498 | > 10000 | 3810 |  | 
O=C(Nc1cc(F)c(=O)n(CC(F)F)c1)c1cc(C#Cc2cccnc2)c(C(F)(F)F)s1 [Compound 65c] |  |  | > 10000 | 4320 | 33.7 | 154
Cn1ccc(C#Cc2cc(C(=O)Nc3cc(F)c(=O)n(CC(F)F)c3)sc2Cl)cc1=O [Compound 65d] | 2360 | 7790 | > 10000 | > 10000 |  | 
CN1CCn2c(C#Cc3cc(C(=O)Nc4cc(F)c(=O)n(CC(F)F)c4)sc3Cl)cnc2C1 [Compound 66c] |  |  | > 10000 | > 10000 | 236 | 772
Cn1cnc(C#Cc2cc(C(=O)Nc3cc(F)c(=O)n(CC(F)F)c3)sc2Cl)n1 [Compound 67c] |  |  | > 10000 | > 10000 | 371 | 807
CNC(=O)c1ncc(C#Cc2cc(C(=O)Nc3cc(F)c(=O)n(CC(F)F)c3)sc2Cl)o1 [Compound 67d] | 14.6 | 37.2 | > 10000 | 2120 |  | 
NC(=O)c1ccc(C#Cc2cc(C(=O)Nc3cc(F)c(=O)n(CC(F)F)c3)sc2Cl)cc1 [Compound 68c] |  |  | > 10000 | 5910 | 67.1 | 121
O=C(Nc1cc(F)c(=O)n(CC(F)F)c1)c1cc(C#CC2CCCOC2)c(Cl)s1 (stereo not shown) [Compound 68d] | 72.5 | 205 | > 10000 | 2410 |  | 
N#Cc1cc(C(=O)Nc2cc(F)c(=O)n(CC(F)F)c2)sc1C(F)F [Compound 69d] | 26.6 | 120 | > 10000 | 2040 |  | 
Cc1cnc(C#Cc2cc(C(=O)Nc3cc(F)c(=O)n(CC(F)F)c3)sc2Cl)s1 [Compound 70c] |  |  | 9160 | 6250 | 260 | 385
O=C(Nc1cc(F)c(=O)n(CC(F)F)c1)c1cc(C#CC(=O)N2CCCC2)c(Cl)s1 [Compound 70d] | 1690 | 4750 | 9840 | 1960 |  | 
Cc1cnc(C#Cc2cc(C(=O)Nc3cc(F)c(=O)n(CC(F)F)c3)sc2Cl)o1 [Compound 71c] |  |  | > 10000 | 1950 | 92 | 304
CN(C)C(=O)C#Cc1cc(C(=O)Nc2cc(F)c(=O)n(CC(F)F)c2)sc1Cl [Compound 71d] | 536 | 1260 | 4090 | 2380 |  | 

Structure (SMILES) | IC50 [1, 2] [nM] | IC50 (FL-SMARCA4; FL-SMARCA4 IC50) [nM] | IC50 (H358 cells) [nM] | IC50 (A549 cells) [nM] | IC50 ([1]; Table 3c.1) [nM] | IC50 (FL-SMARCA4; [3]) [nM]
O=C(Nc1ccc(=O)n(CC(F)F)c1)c1cc(Cl)c(C(F)(F)F)s1 [Compound 72c] |  |  | > 10000 | 4500 | 210 | 1550
CNC(=O)C#Cc1cc(C(=O)Nc2cc(F)c(=O)n(CC(F)F)c2)sc1Cl [Compound 72d] | 481 | 1310 | > 10000 | 5760 |  | 
O=C(Nc1cc(F)c(=O)n(CC(F)F)c1)c1cc(C#CC2COC2)cs1 [Compound 73c] |  |  | > 10000 | 6010 | 847 | 2930
O=C(Nc1cc(F)c(=O)n(CC(F)F)c1)c1cc(C#C[C@H]2C[C@H](O)C2)c(Cl)s1 [Compound 73d] | 10.9 | 32.7 | > 10000 | 1810 |  | 
CN(C)C(=O)c1cccc(C#Cc2cc(C(=O)Nc3cc(F)c(=O)n(CC(F)F)c3)sc2Cl)c1 [Compound 74c] |  |  | > 10000 | 3930 | 67.5 | 245
O=C(Nc1cc(F)c(=O)n(CC(F)F)c1)c1cc(C#CC(F)(F)F)c(Cl)s1 [Compound 74d] | 462 | 1010 | 2440 | 1650 |  | 
CC(=O)Nc1cccc(C#Cc2cc(C(=O)Nc3cc(F)c(=O)n(CC(F)F)c3)sc2Cl)c1 [Compound 75c] |  |  | > 10000 | 1780 | 20 | 54.5
Cc1cc(NC(=O)c2cc(C#N)c(C(F)(F)F)s2)cn(CC(F)F)c1=O [Compound 75d] | 948 | 11300 | > 10000 | > 10000 |  | 
N#Cc1cc(C(=O)Nc2cc(C(F)F)c(=O)n(CC(F)F)c2)sc1C(F)(F)F [Compound 76d] | 1310 | 10200 | > 10000 | > 10000 |  | 
O=C(Nc1cc(F)c(=O)n(CC(F)F)c1)c1cc(C#CC2CCO2)c(Cl)s1 (stereo not shown) [Compound 77d] | 160 | 463 | > 10000 | 7440 |  | 
O=C(Nc1cc(F)c(=O)n(CC(F)F)c1)c1cc(C#C[C@H]2CCOC2)c(Cl)s1 [Compound 78c] |  |  | > 10000 | 1570 | 98.3 | 256
N#Cc1cc(C(=O)Nc2cc(F)c(=O)n(CC(F)F)c2)sc1C(F)(F)Cl [Compound 78d] | 57.5 | 377 | > 10000 | 6370 |  | 
O=C(Nc1cc(F)c(=O)n(CC(F)F)c1)c1cc(C#C[C@@H]2CCOC2)c(Cl)s1 [Compound 79c] |  |  | > 10000 | 1290 | 56.8 | 143
O=C(Nc1cc(F)c(=O)n(CC(F)F)c1)c1cc(C#CC2COC2)c(C(F)F)s1 [Compound 80c] |  |  | > 10000 | 3980 | 161 | 494
Cc1cc(C(=O)Nc2cc(F)c(=O)n(CC(F)F)c2)sc1C(F)(F)F [Compound 80d] | 224 | 1140 | > 10000 | > 10000 |  | 
